Laboratory results as given in patent publication US8344181B2, “N-2 adamantanyl-2-phenoxy-acetamide derivatives as 11-beta hydroxysteroid dehydrogenase inhibitors” (Janssen Pharmaceutica N.V., priority 2004, dated 2013).
pIC50: −log10 of the molar value.

Assays:
11β-HSD1 = target: T1, 11β-HSD1 (Mus musculus, UniProt P50172); assay: Cellular assay of 11β-HSD1 activity in differentiated 3T3-L1 cells; format: cell-based; settings: 4 hour pre-incubation, 10^-5M to 10^-10M, read-out: HSD1 cellular 3T3-L1 Score
T1 construct: endogenous in cells; host or cells: 3T3-L1 (ATCC-CL-173), differentiated into adipocytes
T1 sequence (P50172 whole entry): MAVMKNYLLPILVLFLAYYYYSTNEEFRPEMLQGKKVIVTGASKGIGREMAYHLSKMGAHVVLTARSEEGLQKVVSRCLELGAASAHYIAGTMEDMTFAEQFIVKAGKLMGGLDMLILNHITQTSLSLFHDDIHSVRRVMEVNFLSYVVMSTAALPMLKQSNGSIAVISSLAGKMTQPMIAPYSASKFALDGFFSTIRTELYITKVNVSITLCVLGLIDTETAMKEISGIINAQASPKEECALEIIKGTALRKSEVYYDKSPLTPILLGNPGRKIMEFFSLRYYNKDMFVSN
Experimental: The effects on 11β-HSD1 activity was measured in differentiated 3T3-L1 cells and rat hepatocytes.
Mouse fibroblast 3T3-L1 cells (ATCC-CL-173) were seeded at a density of 16500 cells/ml in 12 well plates and grown for 7 days in DMEM medium (supplemented with 10% heat inactivated foetal calf serum, 2 mM glutamine and 25 mg gentamycin) at 37° C. in a humidified 5% CO2 atmosphere. Medium was refreshed twice a week. Fibroblasts were differentiated into adipocytes at 37° C. in a 5% CO2 humidified atmosphere in growth medium containing 2 μg/ml insulin, 55 μg/ml IBMX and 39.2 μg/ml dexamethasone.
Primary hepatocytes from male rats were seeded on normal Falcon 12 well plates at a density of 250000 cells/well and incubated for 16 hours at 37° C. in a 5% CO2 humidified atmosphere in DMEM-HAM's F12 medium containing 5% Nu-serum, 100 U/ml penicillin, 100 μg/ml streptomycin, 0.25 μg/ml amphotericin B, 50 μg/ml gentamycin sulfate, 5 μg/ml insulin and 392 ng/ml dexamethasone. Following a 4 hour pre-incubation with test compound, 0.5 μCi ^3H-cortisone or dehydrocorticosterone, was added to the 3T3-L1 cultures. One hour later, the medium was extracted on Extrelut^3-columns with 15 ml diethyl ether and the extract was analysed by HPLC as described above. The effects of JNJ-compounds on rat hepatocyte HSD1 activity was measured after an incubation period of 90 minutes with 0.5 μCi^3H-dehydrocorticosterone. Corticosterone formation was analysed by HPLC.
(§1) As for the enzymatic assays, the compounds to be tested were taken from a stock solution and tested at a final concentration ranging from 10^−5M to 10^−10M. From the thus obtained dose response curves, the pIC50 value was calculated and scored as follows; Score 1=pIC50 value<5, Score 2=pIC50 value in the range of 5 to 6, Score 3=pIC50 value>6. (in this table NT stands for Not Tested).

11β-HSD2 = target: T2, 11β-HSD2 (Homo sapiens, UniProt P80365); assay: Cellular assay of 11β-HSD2 activity in HepG2 cells; format: cell-based; settings: 4 hour pre-incubation, 10^-5M to 10^-10M, read-out: HSD2 cellular HepG2 Score
T2 construct: endogenous in cells; host or cells: HepG2 (ATCC HB-8065)
T2 sequence (P80365 1-405): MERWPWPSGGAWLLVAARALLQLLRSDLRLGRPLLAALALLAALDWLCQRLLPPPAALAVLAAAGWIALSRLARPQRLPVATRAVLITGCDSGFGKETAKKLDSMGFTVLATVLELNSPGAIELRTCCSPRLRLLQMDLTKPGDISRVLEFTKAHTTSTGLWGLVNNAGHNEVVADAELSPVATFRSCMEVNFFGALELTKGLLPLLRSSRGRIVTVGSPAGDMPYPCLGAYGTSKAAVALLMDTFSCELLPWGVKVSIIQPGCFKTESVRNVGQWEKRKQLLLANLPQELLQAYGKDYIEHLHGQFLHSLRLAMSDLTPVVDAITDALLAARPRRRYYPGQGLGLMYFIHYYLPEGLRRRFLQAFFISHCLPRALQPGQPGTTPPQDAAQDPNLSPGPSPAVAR
Experimental: The effects on 11β-HSD2 activity was studied in HepG2 and LCC-PK1-cells HepG2-cells (ATCC HB-8065) were seeded in 12 well plates at a density of 100,000 cells/ml and grown at 37° C. in a humidified 5% CO2 atmosphere in MEM-Rega-3 medium supplemented with 10% heat inactivated foetal calf serum, 2 mM L-glutamine and sodium bicarbonate). Medium was refreshed twice a week.
Following a 4 hour pre-incubation with test compound, 0.5 μCi ^3H-cortisol or corticosterone, was added to the cultures. One hour later, the medium was extracted on Extrelut^3-columns with 15 ml diethyl ether and the extract was analysed by HPLC as described above.
as §1

| pIC50 (11β-HSD1) | pIC50 (11β-HSD2) | Compound |
| --- | --- | --- |
| > 6.00 | 5.00 to 6.00 | CCS(=O)(=O)N[C@@]12CC3C[C@H](C1)[C@H](NC(=O)C(C)(C)Oc1cccc(C(F)(F)F)c1)[C@@H](C3)C2 [Compound 87] |
| > 6.00 | 5.00 to 6.00 | CC(C)(Oc1cccc(C(F)(F)F)c1)C(=O)N[C@H]1[C@@H]2CC3C[C@H]1C[C@](NS(=O)(=O)CC(F)(F)F)(C3)C2 [Compound 88] |
| > 6.00 | < 5.00 | Cc1ccc(S(=O)(=O)N[C@@]23CC4C[C@H](C2)[C@H](NC(=O)C(C)(C)Oc2cccc(C(F)(F)F)c2)[C@@H](C4)C3)cc1 [Compound 89] |
| > 6.00 | 5.00 to 6.00 | CC(C)(Oc1cccc(Br)c1)C(=O)N[C@H]1[C@@H]2CC3C[C@H]1C[C@](NC(=O)CCl)(C3)C2 [Compound 90] |
| > 6.00 | > 6.00 | Cc1cc(Cl)ccc1OC(C)(C)C(=O)N[C@H]1[C@@H]2CC3C[C@H]1C[C@](N1CCC(C)C1=O)(C3)C2 (stereo partly drawn) [Compound 91] |
| > 6.00 | 5.00 to 6.00 | CN(C)S(=O)(=O)N[C@@]12CC3C[C@H](C1)[C@H](NC(=O)C(C)(C)Oc1cccc(C(F)(F)F)c1)[C@@H](C3)C2 [Compound 92] |
| > 6.00 | < 5.00 | CC(C)(Oc1cccc(Br)c1)C(=O)N[C@H]1[C@@H]2CC3C[C@H]1C[C@](N)(C3)C2 [Compound 93] |
| > 6.00 | 5.00 to 6.00 | CC(C)(Oc1ccc(Cl)cc1)C(=O)N[C@H]1[C@@H]2CC3C[C@H]1C[C@](NC(=O)CCl)(C3)C2 [Compound 94] |
| > 6.00 | < 5.00 | CC(C)(Oc1ccc(Cl)cc1)C(=O)N[C@H]1[C@@H]2CC3C[C@H]1C[C@](N)(C3)C2 [Compound 95] |
